Laboratory results: ChEMBL document CHEMBL1130868, “Synthesis of betulinic acid derivatives with activity against human melanoma” (1998)
≈ marks a conversion by molar mass, not a printed value.

Legend:
KB = assay: Cytotoxicity against human epidermoid carcinoma of the mouth (KB) cell line.; type: functional; details: read-out: ED50 (the source's name)
SK-MEL-2 = assay: Cytotoxicity against cultured human melanoma (MEL-2) cell line.; type: functional; details: read-out: ED50 (the source's name)

| Compound | EC50 (KB) | EC50 (SK-MEL-2) |
| --- | --- | --- |
| CO/N=C1\CC[C@]2(C)[C@H]3CC[C@@H]4[C@H]5[C@H](C(C)C)CC[C@]5(C(=O)O)CC[C@@]4(C)[C@]3(C)CC[C@H]2C1(C)C | > 20 µg/mL | > 20 µg/mL |
| CC(C)[C@@H]1CC[C@]2(C(=O)O)CC[C@]3(C)[C@H](CC[C@@H]4[C@@]5(C)CC/C(=N\O)C(C)(C)[C@@H]5CC[C@]43C)[C@@H]12 | > 20 µg/mL | 2.2 µg/mL (≈ 4.66 µM) |
| C=C(C)[C@@H]1CC[C@]2(C(=O)O)CC[C@]3(C)[C@H](CC[C@@H]4[C@@]5(C)CC/C(=N\OC)C(C)(C)[C@@H]5CC[C@]43C)[C@@H]12 | 4.3 µg/mL (≈ 8.89 µM) | 8.3 µg/mL (≈ 17.2 µM) |
| C=C(C)[C@@H]1CC[C@]2(C)CC[C@]3(C)[C@H](CC[C@@H]4[C@@]5(C)CC[C@H](OC(=O)c6ccccc6)C(C)(C)[C@@H]5CC[C@]43C)[C@@H]12 | > 20 µg/mL | > 20 µg/mL |
| C=C(C)[C@@H]1CC[C@]2(/C=N/OC)CC[C@]3(C)[C@H](CC[C@@H]4[C@@]5(C)CC/C(=N\OC)C(C)(C)[C@@H]5CC[C@]43C)[C@@H]12 | 20 µg/mL (≈ 40.3 µM) | > 20 µg/mL |
| C=C(C)[C@@H]1CC[C@]2(C(=O)O)CC[C@]3(C)[C@H](CC[C@@H]4[C@@]5(C)CC[C@H](N)C(C)(C)[C@@H]5CC[C@]43C)[C@@H]12 | – | 1.3 µg/mL (≈ 2.85 µM) |
| C=C(C)[C@@H]1CC[C@]2(/C=N/O)CC[C@]3(C)[C@H](CC[C@@H]4[C@@]5(C)CC/C(=N\O)C(C)(C)[C@@H]5CC[C@]43C)[C@@H]12 [BETULIN-3,28-DIOXIME] | 3.3 µg/mL (≈ 7.04 µM) | 2.2 µg/mL (≈ 4.69 µM) |
| C=C(C)[C@@H]1CC[C@]2(C(=O)O)CC[C@]3(C)[C@H](CC[C@@H]4[C@@]5(C)CC[C@H](O)C(C)(C)[C@@H]5CC[C@]43C)[C@@H]12 [BETULINIC ACID] | > 20 µg/mL | 1.2 µg/mL (≈ 2.63 µM) |
| C=C(C)[C@@H]1CC[C@]2(CO)CC[C@]3(C)[C@H](CC[C@@H]4[C@@]5(C)CC[C@H](O)C(C)(C)[C@@H]5CC[C@]43C)[C@@H]12 [BETULIN] | > 20 µg/mL | > 20 µg/mL |
| C=C(C)[C@@H]1CC[C@]2(C=O)CC[C@]3(C)[C@H](CC[C@@H]4[C@@]5(C)CCC(=O)C(C)(C)[C@@H]5CC[C@]43C)[C@@H]12 [BETULONAL] | 12.9 µg/mL (≈ 29.4 µM) | 7.4 µg/mL (≈ 16.9 µM) |
| C=C(C)[C@@H]1CC[C@]2(C(=O)O)CC[C@]3(C)[C@H](CC[C@@H]4[C@@]5(C)CCC(=O)C(C)(C)[C@@H]5CC[C@]43C)[C@@H]12 [BETUNOLIC ACID] | 2.5 µg/mL (≈ 5.5 µM) | 0.9 µg/mL (≈ 1.98 µM) |
| CC(C)[C@@H]1CC[C@]2(C(=O)O)CC[C@]3(C)[C@H](CC[C@@H]4[C@@]5(C)CC[C@H](O)C(C)(C)[C@@H]5CC[C@]43C)[C@@H]12 [DIHYDROBETULINIC ACID] | > 20 µg/mL | 5.8 µg/mL (≈ 12.6 µM) |
| CC(C)[C@@H]1CC[C@]2(C(=O)O)CC[C@]3(C)[C@H](CC[C@@H]4[C@@]5(C)CCC(=O)C(C)(C)[C@@H]5CC[C@]43C)[C@@H]12 [DIHYDROBETULONIC ACID] | > 20 µg/mL | 0.7 µg/mL (≈ 1.53 µM) |
| C=C(C)[C@@H]1CC[C@]2(C)CC[C@]3(C)[C@H](CC[C@@H]4[C@@]5(C)CC[C@H](O)C(C)(C)[C@@H]5CC[C@]43C)[C@@H]12 [LUPEOL] | > 20 µg/mL | 17.6 µg/mL (≈ 41.2 µM) |
| C=C(C)[C@@H]1CC[C@]2(C(=O)OC)CC[C@]3(C)[C@H](CC[C@@H]4[C@@]5(C)CC[C@H](O)C(C)(C)[C@@H]5CC[C@]43C)[C@@H]12 [METHYL BETULINATE] | 11.8 µg/mL (≈ 25.1 µM) | 8.3 µg/mL (≈ 17.6 µM) |
